This note sets out measurements from ChEMBL document CHEMBL3102775, “UK-1 and structural analogs are potent inhibitors of hepatitis C virus replication” (Bioorg Med Chem Lett, 2014).

pEC50, pIC50: −log10 of the molar value. The source made the active and inactive calls. The calls are words filed in the database; no cut-off is given here.

By inhibition is commonly meant how much of the control response was suppressed. Low readings indicate a response near the control, high ones a response far below the control. A word on the CC50: it is the concentration that lowers cell viability or growth by half. The low end stands for harm at low concentration, the high end for better tolerance by the cells. In general, pIC50 refers to the negative decadic logarithm of the IC50, by convention in mol/L. A word on the pEC50: it is the negative decadic logarithm of the EC50, by convention in mol/L.

The subject of data set [1] is Human immunodeficiency virus 1. Nature of the data set: Antiviral activity against HIV1. Format: functional, organism-based.
A further data set relates to Hepacivirus hominis. The data set is described as follows: Inhibition of HCV NS5B RNA dependent RNA polymerase at 100 uM.
A short description of data set [2]: Cytotoxicity against human Huh7ET cells by neutral red assay. Format: cell-based, Huh-7.
The nature of data set [3]: Inhibition of HCV NS3 NTPase/helicase domain expressed in Escherichia coli BL21 using dsDNA as substrate assessed as strand separation of [32P]-labeled oligonucleotides after 30 mins by SDS-gel electrophoresis. Further details: species or system Hepacivirus hominis.
Data set [4] relates to Hepatitis C virus. Nature of the data set: Antiviral activity against HCV infected in human Huh7ET cells assessed as inhibition of viral replication by luciferase reporter gene assay/RNA blot hybridization analysis. It counts as functional, organism-based, Hepacivirus hominis. The note with it: Huh-7.
Data set [5] can be described thus: Binding affinity to double stranded RNA assessed as effect on Eco-RI-digested pT7-7 plasmid mobilization at 20 to 500 uM after 60 mins by agarose gel mobility assay.
Data set [6] can be described thus: Binding affinity to double stranded DNA assessed as effect on Eco-RI-digested pT7-7 plasmid mobilization at 20 to 500 uM after 60 mins by agarose gel mobility assay.
The nature of data set [7]: Inhibition of Dengue virus helicase.
Data set [8] in a line: Inhibition of HCV ATPase activity of NS3 NTPase/helicase domain expressed in Escherichia coli BL21 after 30 mins by thin layer chromatography in presence of [gamma-32P]ATP. Details: species or system Hepacivirus hominis.
A short description of data set [9]: Inhibition of HCV NS3 NTPase/helicase domain expressed in Escherichia coli BL21 using dsRNA as substrate assessed as strand separation of [32P]-labeled oligonucleotides after 30 mins by SDS-gel electrophoresis. Details: species or system Hepacivirus hominis.
A short description of data set [10]: Selectivity index, ratio of CC50 for human Huh7ET cells to EC50 for HCV infected in human Huh7ET cells. Details: species or system Huh-7.
Data set [11] is described as follows: Selectivity index, ratio of CC50 for human Huh7ET cells by luciferase reporter gene assay to EC50 for HCV infected in human Huh7ET cells by luciferase reporter gene assay. Further details: species or system Huh-7. In general terms: A reporter such as luciferase makes a cellular process visible.
The test system of data set [12] is Hepatitis C virus. Nature of the data set: Antiviral activity against HCV infected in human Huh7ET cells assessed as inhibition of viral replication by luciferase reporter gene assay. It counts as functional, organism-based, Hepacivirus hominis. Particulars: Huh-7.
Data set [13] in a line: Cytotoxicity against human Huh7ET cells by luciferase reporter gene assay. Format: cell-based. Particulars: huh-7.

Regarding `COC(=O)c1cccc2oc(-c3ccc4ccc(OCc5ccccc5)cc4c3O)nc12`, the outcome in data set [1], in data set [5] and in data set [6] was inactive. The inhibition with Hepacivirus hominis is less than 30%. The same compound gave a CC50 in data set [2] (Huh7ET cells) of more than 20 µM. The pIC50 in [3] is 5.59; in [7], less than 3.15; in data set [8] it was less than 2.92; in data set [9] it was 4.70. Besides, the pEC50 in the data set with Hepatitis C virus [4] is 6.27. For the same compound, in data set [10], the “Ratio CC50/EC50” value is listed as more than 37.

As to `CNC(=O)c1cccc2oc(-c3ccccc3O)nc12`, the outcome in data set [1] was inactive. The inhibition in the data set on Hepacivirus hominis is less than 30%. Also, the pIC50 in data set [3] was less than 2.74; in data set [7] it was less than 3.15; in data set [8], less than 2.92; in data set [9] it was less than 2.74. Besides, the “Ratio CC50/EC50” value in data set [11] is recorded as 4.5. The pEC50 with Hepatitis C virus [12] is 5.85. In data set [13], this compound showed a CC50 of 6.3 µM.

Take `O=C(O)c1cccc2oc(-c3ccccc3O)nc12`: in [1], the result was inactive. This compound also gave an inhibition in the data set with Hepacivirus hominis of less than 30%. Moreover, the midpoint of cytotoxicity in [2] (huh-7), the CC50, lay at 3.5 µM. Also, the pIC50 in data set [3] was less than 2.74; in data set [7], less than 3.15; in [8], less than 2.92; in data set [9] it was less than 2.74. For the same compound, in the data set on Hepatitis C virus [4], the pEC50 was 6.28. Further, the “Ratio CC50/EC50” value in data set [10] was determined as 6.6.

`COC(=O)c1cccc2oc(-c3ccc4c(OCc5ccccc5)cccc4c3O)nc12`: the outcome in data set [1], in data set [5] and in data set [6] was inactive. In addition, in the data set on Hepacivirus hominis, the inhibition is less than 30%. Besides, the CC50 in [2] (Huh7ET cells) was more than 20 µM. The negative logarithm of the IC50 (pIC50) in data set [3] was 5.42; in data set [7], less than 3.15; in data set [8], less than 2.92; in data set [9], 4.70. In addition, in the data set with Hepatitis C virus [4], the pEC50 is 5.68. The “Ratio CC50/EC50” value in [10] was more than 10.

As to `COC(=O)c1cccc2oc(-c3cccc4oc(-c5ccccc5O)nc34)nc12`, the inhibition with Hepacivirus hominis was less than 30%. Besides, in data set [2] (huh-7), the CC50 came to 17 µM. Further, the pIC50 in [3] was 3.42; in data set [7], less than 3.15; in data set [8] it was less than 2.92; in data set [9], less than 2.92. Moreover, in the data set on Hepatitis C virus [4], the pEC50 was 6.11. The “Ratio CC50/EC50” value in data set [10] is reported as 22.

For the compound `COC(=O)c1cccc2oc(-c3ccccc3O)nc12`, the result in data set [1] was inactive. Further, the inhibition with Hepacivirus hominis was less than 30%. Besides, the half-maximal cytotoxic concentration (CC50) in data set [2] (huh-7) amounted to 5.4 µM. For the same compound, the pIC50 is less than 2.74 in data set [3], less than 3.15 in data set [7], less than 2.92 in [8] and less than 2.74 in data set [9]. In the data set on Hepatitis C virus [4], the pEC50 was 6.30. In addition, in data set [10], the “Ratio CC50/EC50” value is listed as 11.

On to `COC(=O)c1cccc2oc(-c3ccc4ccccc4c3O)nc12`, for which the result in data set [1] was inactive. In the data set on Hepacivirus hominis, this compound came in with an inhibition of less than 30%. In addition, the CC50 in data set [2] (huh-7) came to 2.5 µM. Also, the pIC50 is 3.27 in data set [3], less than 3.15 in data set [7], less than 2.92 in [8] and 3.23 in [9]. Besides, the pEC50 in the data set on Hepatitis C virus [4] is 6.28. Besides, the “Ratio CC50/EC50” value in data set [10] turned out to be 4.7.
